The test has as its target T1, isomerase (Mus musculus, UniProt Q91ZQ5).
T1 construct: The recovery of 11-cis-retinal after bleaching can be used to estimate the activity of isomerase in vivo; from tissue; host or cells: eye (RPE) of living CD-1 albino male mice
T1 sequence (Q91ZQ5 1-533): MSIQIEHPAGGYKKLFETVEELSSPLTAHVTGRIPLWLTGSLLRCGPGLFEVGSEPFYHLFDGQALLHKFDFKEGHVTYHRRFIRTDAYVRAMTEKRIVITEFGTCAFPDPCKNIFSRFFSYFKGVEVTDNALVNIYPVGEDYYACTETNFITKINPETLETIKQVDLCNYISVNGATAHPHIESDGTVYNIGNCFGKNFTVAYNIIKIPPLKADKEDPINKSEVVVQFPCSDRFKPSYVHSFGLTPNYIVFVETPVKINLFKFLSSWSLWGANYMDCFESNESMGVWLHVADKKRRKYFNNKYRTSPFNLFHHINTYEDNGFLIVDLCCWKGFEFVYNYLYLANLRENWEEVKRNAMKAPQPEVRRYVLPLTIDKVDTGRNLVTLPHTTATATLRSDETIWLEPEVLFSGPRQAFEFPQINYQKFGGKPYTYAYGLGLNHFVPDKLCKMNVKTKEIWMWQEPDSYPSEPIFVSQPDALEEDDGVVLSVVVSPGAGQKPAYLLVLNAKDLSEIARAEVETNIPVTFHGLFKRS
The test can be described thus: In vivo murine isomerase assay (recovery of 11-cis-retinal after photobleaching). More on the design: species or system CD-1 (albino) male mice. Particulars: for % Inhibition 1 mg/kg 4 h / % Inhibition 1 mg/kg 24 h / % Inhibition 5 mg/kg 4 h / % Inhibition 5 mg/kg 24 h: CD1 male mice; for % Inhibition 1 mg/kg 4 h / % Inhibition 1 mg/kg 24 h: single oral dose 1 mg/kg; for % Inhibition 1 mg/kg 4 h / % Inhibition 5 mg/kg 4 h: photobleaching 4 h post dosing; for % Inhibition 1 mg/kg 24 h / % Inhibition 5 mg/kg 24 h: photobleaching 24 h post dosing; for % Inhibition 5 mg/kg 4 h / % Inhibition 5 mg/kg 24 h: single oral dose 5 mg/kg; for ED50: mouse, po, read-out: ED50 (dose of compound that gives 50% inhibition of 11-cis retinal (oxime) recovery), CD-1 male mice, oral gavage, photobleached 4 hours after dosing. The protocol:
The capability of amine derivative compounds to inhibit isomerase was determined by an in vivo murine isomerase assay. Brief exposure of the eye to intense light (“photobleaching” of the visual pigment or simply “bleaching”) is known to photo-isomerize almost all 11-cis-retinal in the retina. The recovery of 11-cis-retinal after bleaching can be used to estimate the activity of isomerase in vivo.
Delayed recovery, as represented by lower 11-cis-retinal oxime levels, indicates inhibition of isomerization reaction. Procedures were performed essentially as described by Golczak et al., Proc. Natl. Acad. Sci. USA 102:8162-67 (2005). See also Deigner et al., Science, 244: 968-71 (1989); Gollapalli et al., Biochim Biophys Acta. 1651: 93-101 (2003); Parish, et al., Proc. Natl. Acad. Sci. USA, 14609-13 (1998); Radu, et al., Proc Natl Acad Sci USA 101: 5928-33 (2004).
[…] Mice were orally gavaged with the several of the amine derivative compounds described herein. After 1-48 hours in the dark, the mice were exposed to photobleaching of 5,000 lux of white light for 10 minutes. The mice were allowed to recover 2 hours in the dark. The animals were then sacrificed by carbon dioxide inhalation. Retinoids were extracted from the eye and the regeneration of 11-cis-retinal was assessed at various time intervals.
All steps were performed in darkness with minimal redlight illumination (low light darkroom lights and redfiltered flashlights for spot illumination as needed) (see, e.g., Maeda et al., J. Neurochem 85:944-956, 2003; Van Hooser et al., J Biol Chem 277:19173-82, 2002). After the mice were sacrificed, the eyes were immediately removed and placed in liquid nitrogen for storage.
The eyes were placed in 500 μL of bis-tris propane buffer (10 mM, pH ˜7.3) and 20 μL of 0.8M hydroxylamine (pH˜7.3). The eyes were cut up into small pieces with small iris scissors and then thoroughly homogenized at 30000 rpm with a mechanical homogenizer (Polytron PT 1300 D) in the tube until no visible tissue remained. 500 μL of methanol and 500 μL of heptane were added to each tube. The tubes were attached to a vortexer so that the contents were mixed thoroughly for 15 minutes in room temperature. The organic phase was separated from the aqueous phase by centrifugation for 10 min at 13K rpm, 4° C. 240 μL of the solution from the top layer (organic phase) was removed and transferred to clean 300 μl glass inserts in HPLC vials using glass pipette and the vials were crimped shut tightly.
The samples were analyzed on an Agilent 1100 HPLC system with normal phase column: SILICA (Beckman Coutlier, dp 5 μm, […]). The running method has a flow rate of 1.5 ml/min; solvent components are 15% solvent 1 (1% isopropanol in ethyl acetate), and 85% solvent 2 (100% hexanes). Loading volume for each sample is 100 μl; detection wavelength is 360 nm. The area under the curve for 11-cis retinal oxime was calculated by Agilent Chemstation software and was recorded manually. Data processing was performed using Prizm software.
Positive control mice (no compound administered) were sacrificed fully dark-adapted and the eye retinoids analyzed. Light (bleached) control mice (no compound administered) were sacrificed and retinoids isolated and analyzed immediately after light treatment. The animals were orally gavaged with 1 mg/kg compound, then “photo-bleached” (5000 Lux white light for 10 minutes) at 4, 24 and 48 hours after dosing, and returned to darkness to allow recovery of the 11-cis-retinal content of the eyes. Mice were sacrificed 2 hours after bleaching, eyes were enucleated, and retinoid content was analyzed by HPLC.
A dose response in vivo isomerase inhibition study was performed with several of the amine derivative compounds described herein. Six-week old dark-adapted CD-1 (albino) male mice were orally gavaged with 0.03, 0.1, 0.3, 1 and 3 mg/kg of compound in sterile water as solution, and photobleached 4 hours after dosing. […]

Regarding `CCCC(O)(CCC)CCc1cccc(CCCN)c1` [Example 3, 4-(3-(3-aminopropyl)phenethyl)heptan-4-ol], the “% Inhibition 1 mg/kg 4 h” value worked out at 36%, the “% Inhibition 1 mg/kg 24 h” value is 13%, the “% Inhibition 5 mg/kg 4 h” value stood at 95% and the “% Inhibition 5 mg/kg 24 h” value amounted to 0%. Besides, the ED50 (estimated) is 2 mg/kg.

For `NCCCc1cccc(CCC2(O)CCCCC2)c1` [Example 7, 1-(3-(3-aminopropyl)phenethyl)cyclohexanol], the “% Inhibition 1 mg/kg 4 h” value was found to be 23% and the “% Inhibition 1 mg/kg 24 h” value was 12%.

Take `CCCC(O)(CCC)CCc1cccc(OCCN)c1` [Example 9, 4-(3-(2-aminoethoxy)phenethyl)heptan-4-ol]: the “% Inhibition 1 mg/kg 4 h” value amounted to 12% and the “% Inhibition 1 mg/kg 24 h” value worked out at 6%.

Turning to `NCCOc1cccc(CCC2(O)CCCCCC2)c1` [Example 10, 1-(3-(2-aminoethoxy)phenethyl)cycloheptanol], the “% Inhibition 1 mg/kg 4 h” value is given as 9% and the “% Inhibition 1 mg/kg 24 h” value is 1%.

`NCCOc1cccc(CCC2(O)CCSCC2)c1` [Example 11, 4-(3-(2-aminoethoxy)phenethyl)tetrahydro-2H-thiopyran-4-ol]: the “% Inhibition 1 mg/kg 4 h” value turned out to be 0% and the “% Inhibition 1 mg/kg 24 h” value stood at 0%.

Regarding `NCCOc1cccc(CCC2(O)CCCCC2)c1` [Example 12, 1-(3-(2-aminoethoxy)phenethyl)cyclohexanol], the “% Inhibition 1 mg/kg 4 h” value worked out at 27% and the “% Inhibition 1 mg/kg 24 h” value came to 12%.

Turning to `NCCC(O)c1cccc(CCC2(O)CCCCC2)c1` (stereo not drawn) [Example 15, 1-(3-(3-amino-1-hydroxypropyl)phenethyl)cyclohexanol], under “estimated”, the ED50 was 2 mg/kg.

In the case of `NCCC(O)c1cccc(CCC2(O)CCCCCC2)c1` (stereo not drawn) [Example 16, 1-(3-(3-amino-1-hydroxypropyl)phenethyl)cycloheptanol], the “% Inhibition 1 mg/kg 4 h” value stood at 6% and the “% Inhibition 1 mg/kg 24 h” value came out at 0%.

Regarding `NCCC(O)c1cccc(CCC2CCCC2)c1` (stereo not drawn) [Example 17, 3-amino-1-(3-(2-cyclopentylethyl)phenyl)propan-1-ol], the “% Inhibition 1 mg/kg 4 h” value is on record as 84% and the “% Inhibition 1 mg/kg 24 h” value is 0%.

As to `CCCC(O)(CCC)CCc1cccc(C(O)CCN)c1` (stereo not drawn) [Example 19, 4-(3-(3-amino-1-hydroxypropyl)phenethyl)heptan-4-ol], the “Inhibition of recovery of 11-cis retinal (oxime), dose dependence” value (0.03-3 mg/kg oral, 4 hours post dosing) is listed as “dose related”. The “ED50 (dose of compound that gives 50% inhibition of 11-cis retinal (oxime) recovery)” value (CD-1 male mice, oral gavage, photobleached 4 hours after dosing, estimated) is 0.65 mg/kg. In addition, the ED50 (estimated) was 0.651 mg/kg.

As for `NCCCc1cccc(CCC2(O)CCCCCC2)c1` [Example 20, 1-(3-(3-aminopropyl)phenethyl)cycloheptanol], the “% Inhibition 1 mg/kg 4 h” value was determined as 0% and the “% Inhibition 1 mg/kg 24 h” value worked out at 2%.

Turning to `CCCCCc1cccc(CCCN)c1` [Example 27, 3-(3-pentylphenyl)propan-1-amine], the “% Inhibition 1 mg/kg 4 h” value stood at 6% and the “% Inhibition 1 mg/kg 24 h” value came out at 29%.

As for `CC(C)(C)CCc1cccc(CCCN)c1` [Example 29, 3-(3-(3,3-dimethylbutyl)phenyl)propan-1-amine], the “% Inhibition 1 mg/kg 4 h” value was 0%, the “% Inhibition 1 mg/kg 24 h” value is given as 0%, the “% Inhibition 5 mg/kg 4 h” value stood at 62% and the “% Inhibition 5 mg/kg 24 h” value turned out to be 0%. The ED50 (estimated) is 4 mg/kg.

For the molecule `NCCCc1cccc(CCCCc2ccccc2)c1` [Example 35, 3-(3-(4-phenylbutyl)phenyl)propan-1-amine], the “% Inhibition 1 mg/kg 4 h” value is given as 0%.

Usually ED50 stands for the dose at which the effect has come halfway, by size or by number of responders.

Values taken from patent US8450527B2, “Amine derivative compounds for treating ophthalmic diseases and disorders” (Acucela Inc., priority 2007, dated 2013).
